{"source": "patent US11793845B2", "about": "“Composition for ameliorating peripheral sensory neuropathy” (KINKI UNIVERSITY, priority 2016, dated 2023)", "key": {"[1]": {"test_system": "Peripheral Sensory Neuropathy Induced by Paclitaxel in Mice", "test": "von Frey test, paclitaxel-induced peripheral sensory neuropathy", "format": "in vivo", "details": "paclitaxel 6 mg/kg once a week alone, compared with control group; three days after the administration", "text": "The mice in the three groups in the above (1) were put in a cage and a filament having a strength of 0.16 g was pressed on the plantar surface of the leg to measure the number of times (a score) of avoidance response.\nMale Balb/c mice of 6 to 7 weeks old were used as in Example 1. The mice were divided into three groups: a control group, a paclitaxel administration group, and a paclitaxel and Lentinus edodes mycelium extract administration group (paclitaxel+Lentinus edodes mycelium extract administration group). Paclitaxel was administered to each mouse once a day at a dose of 6 mg/kg. Further, the Lentinus edodes mycelium extract was administered to each mouse once a day at a dose of 2 g/kg.\nFurther, the number of times of administration was set to once a week (on Day 0, Day 7, and Day 14) for paclitaxel and daily (from Day 0 to Day 15) for the Lentinus edodes mycelium extract in both the von Frey test and the cold plate test below.\nEvaluation was performed in the same manner as in the test with oxaliplatin. Referring to FIG. 3, the horizontal axis indicates an elapsed time after administration (days) and the vertical axis indicates the avoidance response (scores). Open circles with a solid line represent the control group. Filled circles with a solid line represent the group in which only paclitaxel was administered. Open squares with a dash line represent the group in which paclitaxel and the Lentinus edodes mycelium extract were administered (paclitaxel+Lentinus edodes mycelium extract administration group). When the difference with the control group was determined to be significant using a significance level of 5%, the data were marked by “*”.\nIn the present test, the mice were divided into six groups by a difference in test objects. As in Example 1, male Balb/c mice of 6 to 7 weeks old were used. […]"}, "[2]": {"test_system": "Peripheral Sensory Neuropathy Induced by Paclitaxel in Mice", "test": "cold plate test, paclitaxel-induced peripheral sensory neuropathy", "format": "in vivo", "details": "paclitaxel 6 mg/kg alone; Day 3", "description": "The effect of the Lentinus edodes mycelium extract on the paresthesia to cold stimulation was tested by performing the cold plate test. The mice in the three groups in the above (1) were put on a cold plate set to 10° C. and a response time for avoidance (a latency) was measured. The shorter latency means that the mouse avoids the cold stimulation of the cold plate more.\nIn the present test, the mice were divided into four groups by a difference in test objects. As in Example 1, male Balb/c mice of 6 to 7 weeks old were used. The mice were divided into a total of four groups, a control group, a paclitaxel administration group, and two different paclitaxel and Lentinus edodes mycelium extract administration groups (paclitaxel+Lentinus edodes mycelium extract administration groups). […] Further, a group in which the Lentinus edodes mycelium extract was administered to each mouse once a day at a dose of 1 g/kg (hereinafter referred to as “1 g/kg administration group”) and a group in which the Lentinus edodes mycelium extract was administered to each mouse once a day at a dose of 2 g/kg (hereinafter referred to as “2 g/kg administration group”) were prepared.\nEvaluation was performed in the same manner as in the test with oxaliplatin. Referring to FIG. 4, the horizontal axis indicates the elapsed time after administration (days) and the vertical axis indicates the avoidance response time (seconds). Open circles with a solid line represent the control group. Filled circles with a solid line represent the group in which only paclitaxel was administered. Open squares with a dash line and filled squares with a dash line represent the groups in which paclitaxel and the Lentinus edodes mycelium extract were administered at the same time (paclitaxel+Lentinus edodes mycelium extract administration groups). […] When the difference with the control group was determined to be significant using a significance level of 5%, the data were marked by “*”. […]"}}, "data": [{"smiles": "CC(=O)O[C@H]1C(=O)[C@@]2(C)[C@H]([C@H](OC(=O)c3ccccc3)[C@]3(O)C[C@H](OC(=O)[C@H](O)[C@@H](NC(=O)c4ccccc4)c4ccccc4)C(C)=C1C3(C)C)[C@]1(OC(C)=O)CO[C@@H]1C[C@@H]2O", "note": "[paclitaxel]", "values": [{"measurement": "avoidance response (scores), von Frey test", "setting": "[1]", "result": "significantly increased"}, {"measurement": "latency to the cold stimulation (avoidance response time), cold plate test", "setting": "[2]", "result": "significantly reduced"}]}]}
